Where a SMILES comes first, the peptide text is derived from it. Bridges are numbered along the chain shown (N, C = ends).
Tests used:
endothelin receptor = experiment: Assay of affinity for receptor (I125-ET-1 binding to porcine myocardial membrane fraction); conditions: ET-1 = 100
[1] = system: porcine coronary smooth muscles (constriction due to endothelin-1); experiment: Assay of constriction suppressing activity to porcine coronary smooth muscles; format: cell-based; conditions: Sample: constriction due to 10^-9 M ET-1 in the presence of 10^-5 sample; Control: constriction due to 10^-9 M ET-1; formula shown only as drawing 9
Method: Its tension was detected by a force displacement transducer UL-10GR (Minebea), and recorded by a polygraph (NEC Sanei). […] A tension of 1.25 to 1.5 g was applied to each of the strips, followed by equilibration for 1.5 hours. 60 mM KCl was repeatedly applied thereto at intervals of 30 minutes until the constriction response became constant. After additional equilibration for 1.5 hours, a sample for assay was given. The constriction of the strips was normalized by the constriction response of the individual strips to 60 mM KCl and statistically processed.

porcine coronary artery = format: cell-based

CC[C@H](C)[C@H](NC(=O)[C@H](CC(=O)O)NC(=O)[C@H](CC(C)C)NC(=O)[C@H](Cc1c[nH]cn1)NC(=O)[C@@H]1CSSC[C@H](N)C(=O)N[C@@H](CO)C(=O)N[C@@H](C)C(=O)N[C@@H](CO)C(=O)N[C@@H](CO)C(=O)N[C@@H](CC(C)C)C(=O)N[C@@H](CCSC)C(=O)N[C@@H](CC(=O)O)C(=O)N[C@@H](CCCCN)C(=O)N[C@@H](CCC(=O)O)C(=O)N[C@@H](Cc2ccccc2)C(=O)N[C@@H](C(C)C)C(=O)N[C@@H](Cc2ccc(O)cc2)C(=O)N[C@@H](Cc2ccccc2)C(=O)N1)C(=O)N[C@H](C(=O)N[C@@H](Cc1c[nH]c2ccccc12)C(=O)O)[C@@H](C)CC [Example 3, [Ala^3, Phe^11]-ET-1] (H-CSASSLMDKEFVYFCHLDIIW-OH; disulfide 1-15)
Receptor binding activity (Relative potency) (endothelin receptor): 0.1
Suppressing activity to ET-1 [1]: 56
Constrictor activity (Relative potency) (porcine coronary artery; ET-1 = 100): < 0.1
Maximum Constriction (% 60 mM KCl) (porcine coronary artery; normalized to constriction response to 60 mM KCl): 10 % 60 mM KCl

Source: patent US5306808A, “Peptide derivatives having vasodilating activity” (Takeda Chemical Industries, Ltd., priority 1991, dated 1994)
